Assay results as given in patent publication US20080153795A1, “Medicaments and methods for wound healing” (RENOVO LIMITED, priority 2006, published 2008).

Assays:
[1] = application of 100 μg in a gel to an epidermal surface, six hours from application; cited from earlier work
[2] = test system: human punch biopsy wounds; assay: Human punch biopsy wounds, re-epithelialisation by histology; format: in vivo; details: 100 μl intradermal 10 minutes before wounding, 3 mm punch biopsy
From the text: Healthy male and post-menopausal female volunteers were chosen as the subjects of the study. 44 healthy subjects were recruited to the study, of whom, 40 were healthy males (aged 18-75 years) and 4 were post-menopausal females (aged 53-69 years). The average age of subjects recruited to this study was 42 years. The post-menopausal status of female subjects was confirmed by quantification of serum levels of oestradiol and follicle stimulating hormone (FSH). Serum levels of oestradiol were required to be <90 pmol/L, and follicle stimulating hormone levels >31 IU/L.
Each subject had three wounds treated with active drug, one corresponding to each of three concentrations of the medicaments produced; a fourth wound was treated with placebo control. The test medicaments and placebo control were each administered intradermally, as a single dose, at a volume of 100 μl per wound site (the upper, inner aspect of each arm), 10-minutes before wounding.
Subjects received 3 mm punch biopsies at the sites where the medicaments had been administered. After wounding, all sites received moist wound healing dressings (Standard Care).
Biopsy sites were excised, using a 5 mm punch biopsy, three days after wounding. Excised wounds were preserved for histological assessment of re-epithelialisation by image analysis. All histological assessments of early wound healing events were made using preserved 5 micron-thickness wound sections taken from the widest part of each excised biopsy site. Sections were stained with Haematoxylin and Eosin to aid visualisation of structural features, and measurements made using image analysis software. The distance traveled by the epithelium is derived from two histological measurements: the freehand total wound diameter and the freehand non-epithelialised wound diameter. […] Percentage re-epithelialisation for the new epithelium was calculated as a proportion of the total wound diameter. The average percentage re-epithelialisation value was calculated from the 44 wounds of each treatment group.

Compound	applied oestradiol found in the skin or having passed through the skin [1]	re-epithelialisation three days after wounding ([2]; 0.02 μg/100 μl (0.00002%) medicament)	re-epithelialisation three days after wounding ([2]; 0.1 μg/100 μl (0.0001%) medicament)	re-epithelialisation three days after wounding ([2]; 0.2 μg/100 μl (0.0002%) medicament)
C[C@]12CC[C@@H]3c4ccc(O)cc4CC[C@H]3[C@@H]1CC[C@@H]2O [oestradiol]	15.7 µg			
C[C@]12CC[C@@H]3c4ccc(O)cc4CC[C@H]3[C@@H]1CC[C@@H]2O [17β-oestradiol]		37.4%	42.3%	42.6%
